Laboratory results from patent publication US11083743B2, “DNA hypomethylating agents for cancer therapy” (priority 2013, dated 2021).

How the values were obtained:
TS/A cells [1] = test: Anti-tumor activity on TS/A tumor grafts in syngeneic BALB/c mice (caliper tumor volume); assay type: in vivo; details: FIG. 1
Method: Primary cultures of murine mammary carcinoma cells TS/A were grown in DMEM Medium supplemented with 10% heat-inactivated FCS (Lonza), 2 mM L-glutamine (Biochrom AG) and 50 μM β-mercaptoethanol. Six-week-old female BALB/c, athymic nude and SCID/Beige mice were obtained from Harlan laboratories (Udine, Italy). Animal care and use were in accordance with Institutional guidelines and the indications of Workman et al. (Workman P, et al. Br J Cancer. 2010 May 25; 102(11): 1555-1577). Mice were sc injected in the flank region with TS/A cells (2×10^5) resuspended in 0.1 ml of physiologic saline. […] Control mice were ip injected with 0.2 ml of saline solution. Animals were weekly monitored for changes in the tumor size or sacrificed by CO2 overdose; for the latter, tumor tissues were surgically removed, and each specimen, divided under sterile conditions, were snap-frozen in liquid nitrogen and stored at −80° C. until used for RNA and DNA extraction. In vivo tolerability was evaluated by measurements of body weight and mortality rate. The antiproliferative activity of the drug was evaluated by caliper measurements of tumor mass. Body weight and tumor size measurements were recorded periodically, all along the treatment. Tumor volumes (TV) were calculated as follows: TV=LD^2/2 (in which L is the longest diameter and D the shortest one).

P1A promoter = test: qMSP analysis of P1A promoter methylation in excised tumor tissues; assay type: in vivo, murine; details: FIG. 3; tumors excised one week after end of first cycle (day 8)
Method: Mice were sc injected in the flank region with TS/A cells (2×10^5) resuspended in 0.1 ml of physiologic saline. […] Control mice were ip injected with 0.2 ml of saline solution. Animals were weekly monitored for changes in the tumor size or sacrificed by CO2 overdose; for the latter, tumor tissues were surgically removed, and each specimen, divided under sterile conditions, were snap-frozen in liquid nitrogen and stored at -80° C. until used for RNA and DNA extraction. RNA and DNA were extracted from tissues sections, removed from control and treated mice one week after the end of the first cycle treatment (day 8) and homogenized with the aid of Tissue Lyser II (QIAGEN) in Trizol reagent or lysis buffer, respectively. Total RNA was extracted following the manufacturer's instructions and stored at -80° C. Total genomic DNA was extracted by digestion with 100 μg/ml proteinase K in the presence of 0.5% SDS at 50° C. overnight, followed by phenol/chloroform extraction and ethanol precipitation. Genomic DNA was eluted in TE buffer and stored at -20° C. […] Primers for the analysis of the methylation status of […], designed using the free on-line software MethPrimer (Li L C and […] Bioinformatics 2002; 18:1427-31), were: […] (Methylated), forward [NT] ID No. 5), reverse [NT] ID No. 6); […] (Unmethylated), forward [NT] ID No. 7), reverse [NT] ID No. 8). […]

[2] = test system: murine CTA (P1A, Mage-a family); test: RT-PCR analysis of murine CTA expression in excised tumor tissues; assay type: in vivo; details: FIG. 4, tumors excised one week after end of first cycle
Method: Mice were sc injected in the flank region with TS/A cells (2×10^5) resuspended in 0.1 ml of physiologic saline. […] Control mice were ip injected with 0.2 ml of saline solution. Animals were weekly monitored for changes in the tumor size or sacrificed by CO2 overdose; for the latter, tumor tissues were surgically removed, and each specimen, divided under sterile conditions, were snap-frozen in liquid nitrogen and stored at -80° C. until used for RNA and DNA extraction. RNA and DNA were extracted from tissues sections, removed from control and treated mice one week after the end of the first cycle treatment (day 8) and homogenized with the aid of Tissue Lyser II (QIAGEN) in Trizol reagent or lysis buffer, respectively. Total RNA was extracted following the manufacturer's instructions and stored at -80° C. Total genomic DNA was extracted by digestion with 100 μg/ml proteinase K in the presence of 0.5% SDS at 50° C. overnight, followed by phenol/chloroform extraction and ethanol precipitation. Genomic DNA was eluted in TE buffer and stored at -20° C. RT-PCR reactions were performed using oligonucleotide primer sequences and PCR amplification programs specific for […] and Mage-a family (Coral S, Covre A et al, Br J Cancer. 2012 Sep. 25; 107(7):1116-24). […]

P1A = test: Real-time quantitative RT-PCR of P1A expression in excised tumor tissues; assay type: in vivo, murine; details: FIG. 5; normalized to β-actin
Method: Mice were sc injected in the flank region with TS/A cells (2×10^5) resuspended in 0.1 ml of physiologic saline. […] Control mice were ip injected with 0.2 ml of saline solution. Animals were weekly monitored for changes in the tumor size or sacrificed by CO2 overdose; for the latter, tumor tissues were surgically removed, and each specimen, divided under sterile conditions, were snap-frozen in liquid nitrogen and stored at -80° C. until used for RNA and DNA extraction. RNA and DNA were extracted from tissues sections, removed from control and treated mice one week after the end of the first cycle treatment (day 8) and homogenized with the aid of Tissue Lyser II (QIAGEN) in Trizol reagent or lysis buffer, respectively. Total RNA was extracted following the manufacturer's instructions and stored at -80° C. […] Real-time quantitative RT-PCR analyses were performed as previously described (Calabro L, et al., J Cell Physiol 2005; 202:474-7) Briefly, total RNA was digested with RNAse-free DNAse (Roche Diagnostics), to remove contaminating genomic DNA. […] Measurement of gene expression was performed utilizing the ABI prism 7000 Sequence Detection System (Applied Biosystems), as previously described (Calabro L, et al., J Cell Physiol 2005; 202:474-7). cDNA standards were obtained by RT-PCR amplification of the specific mRNAs and quantitated by NanoDrop® ND-1000 UV-Vis Spectrophotometer. […]

TS/A cells [3] = test: Anti-tumor activity on TS/A tumor grafts in T cell-deficient athymic nude mice; assay type: in vivo; details: FIG. 6A, first cycle only
Method: (§1) Six-week-old female BALB/c, athymic nude and SCID/Beige mice were obtained from Harlan laboratories (Udine, Italy). Animal care and use were in accordance with Institutional guidelines and the indications of Workman et al. (Workman P, et al. Br J Cancer. 2010 May 25; 102(11): 1555-1577).
(§2) Mice were sc injected in the flank region with TS/A cells (2×10^5) resuspended in 0.1 ml of physiologic saline. Animals were examined daily and after a latency period of 1 week, mice bearing clearly palpable and visible tumor grafts (diameter≥0.2 cm) were ip injected with 0.2 ml/injection of i) 15 mg/kg/day of 5-AZA-CdR, three times a day every three hours on days 0 and 7 and on days 42 and 49 for the 2nd cycle of treatment; ii) 100 μg/mouse of anti-CTLA-4 mAb, on days 2, 5 and 8 and on days 44, 47 and 50 for the 2nd cycle of treatment; iii) 100 μg/mouse of anti-PDL-1 mAb on days 2, 5 and 8; iv) combined administration of 5-AZA-CdR and anti-CTLA-4 mAb according to the above reported schedules or; v) combined administration of 5-AZA-CdR and anti-PDL-1 mAb according to the above reported schedules. […] Animals were weekly monitored for changes in the tumor size or sacrificed by CO2 overdose; for the latter, tumor tissues were surgically removed, and each specimen, divided under sterile conditions, were snap-frozen in liquid nitrogen and stored at −80° C. until used for RNA and DNA extraction.

TS/A cells [4] = test: Anti-tumor activity on TS/A tumor grafts in SCID/Beige mice; assay type: in vivo; details: FIG. 6B, first cycle only
Method: as §1, §2

MHC class I antigens = test: MHC class I antigen expression on tumours of treated mice; assay type: in vivo
tumour = test: Histology and immunohistochemistry of surgically-excised tumors from treated mice; assay type: in vivo

Nc1ncn([C@H]2C[C@H](O)[C@@H](CO)O2)c(=O)n1 [5-AZA-CdR, 5-aza-2′-deoxycytidine]
tumor growth inhibition (TS/A cells [1]; day 15, vs control mice): 40.7%
tumor growth inhibition (TS/A cells [1]; day 35, vs control mice): 67.6%
constitutive methylation levels of P1A promoter in cancer tissues vs control mice (P1A promoter): significant (p<0.05) reduction
expression of P1A and Mage-a members in tumor tissues [2]: strong de novo expression
levels of P1A-specific mRNA expression, 5-AZA-CdR alone compared with combination (P1A): similar
tumor growth (TS/A cells [3]): significantly (p<0.05 and p<0.01) reduced tumor growth
tumor growth (TS/A cells [4]): significantly (p<0.05 and p<0.01) reduced tumor growth
constitutive expression of MHC class I antigens on tumours (MHC class I antigens): increases
lymphocyte infiltration into the tumour (tumour): neither induces lymphocyte infiltration
tumour necrosis (tumour): does not induce tumour necrosis
